Experimental data published in publication PMC10253456, “Investigating the Contribution of Major Drug-Metabolising Enzymes to Possum-Specific Fertility Control” (International Journal of Molecular Sciences, 2023).
Like-named read-outs stand apart in the source and are kept apart here.

Legend:
[1] = tested on: CYP3A; assay: CYP3A catalytic activity (erythromycin N-demethylation) in possum liver microsomes; conditions: for Percent control catalytic activity at estimated IC50 / Percent control catalytic activity at estimated 2-fold IC50: possum liver microsomes, initial screen n=1; for Percent control catalytic activity at estimated IC50: compounds without reported IC50 at 1 µM; for Percent control catalytic activity at estimated 2-fold IC50: compounds without reported IC50 at 5 µM; for % of control (catalytic activity at 2-fold IC50) / Catalytic activity at 2-fold IC50: compound at estimated 2-fold IC50 (5 µM where none reported); for inhibition of CYP3A catalytic activities at higher concentration: 10 µM; for reduced catalytic activity of possum CYP3A, % of the control: mainly at 5 µM or an estimated 2-fold IC50, not significantly different
Protocol: (§1) Possums were collected from the Otago Peninsula (Dunedin) and the Okuti Valley, Banks Peninsula (Christchurch) in New Zealand in collaboration with the Otago Peninsula Biodiversity Group and Manaaki Whenua-Landcare Research, respectively. […] Possums were caged and humanely killed by a blow to the head, and the livers were harvested, snap-frozen in liquid nitrogen, and stored in a freezer at −80 °C until the preparation of microsomal fractions. […] Mice were euthanised by carbon dioxide inhalation and the livers were removed and microsomes prepared. […] The livers from avian species (mallards and a swan) were kindly donated by a local bird hunting group based in Dunedin, New Zealand. The livers from avian species were treated similarly to those mentioned above for the possum samples.
(§2) Microsomal preparation was carried out as previously described [76]. […] All procedures were performed at 0–4 °C. The liver samples were minced and homogenised in Buffer A (0.1 M Tris, 0.1 M potassium chloride, 1 mM EDTA, and 20 μM butylated hydroxytoluene, at pH = 7.4) using the Teflon-glass homogeniser (5–6 vertical passes). The samples were centrifuged at 10,000× g for 20 min. The supernatant was then transferred into another set of centrifuge tubes and spun at 100,000× g for 60 min. The pellet was resuspended in Buffer B (0.1 M potassium pyrophosphate, 1 mM EDTA, and 20 μM butylated hydroxytoluene, at pH = 7.4), homogenised, and recentrifuged at 100,000× g for 60 min. Finally, the pellet was homogenised in 1–2 mL of Buffer C (10 mM Tris-HCl, 1 mM EDTA, and 4% glycerol (v/v)), and stored at −80 °C until use. The protein concentration of the microsomes was determined using the bicinchoninic acid (BCA) method [77].
(§3) CYP3A catalytic activity was determined using the erythromycin N-demethylation activity assay, as described [78]. The reaction mixture (final volume of 1 mL and final protein concentration of 1 mg) contained 500 µL of microsomes in 0.1 M phosphate buffer (pH 7.4) and 400 µL of erythromycin buffer (0.45 mM), and 50 µL of the test compound was pre-warmed at 37 °C for 2 min. The reaction was initiated with 50 µL of 2.5 mM nicotinamide adenine dinucleotide phosphate (NADP^+) and incubated for 30 min at 37 °C. […] The tubes were vortexed and left for 5 min (at room temperature), and then 330 µL of saturated barium hydroxide was added. The tubes were further vortexed and left for 5 min (at room temperature). The tubes were then centrifuged at 1800× g for 10 min. To 830 µL of the supernatant, 330 µL of Nash reagent (30% (w/v) ammonium acetate, 0.4% (v/v) acetylacetone) was added and further incubated for 30 min at 60 °C. The blank tube contained 330 µL of Nash reagent and 830 µL of Milli-Q water. […] The CYP3A activities were determined in nmol/mg/min using standard curve data. Results presented are the mean ± SEM of 3 independent experiments performed in duplicate unless otherwise stated.

[2] = tested on: CYP3A; assay: CYP3A catalytic activity (erythromycin N-demethylation) in mouse liver microsomes; conditions: for Percent control catalytic activity at estimated IC50 / Percent control catalytic activity at estimated 2-fold IC50: mouse liver microsomes, initial screen n=1; for Percent control catalytic activity at estimated IC50: compounds without reported IC50 at 1 µM; for Percent control catalytic activity at estimated 2-fold IC50: compounds without reported IC50 at 5 µM; for % of control (catalytic activity at 2-fold IC50) / Catalytic activity at 2-fold IC50: compound at estimated 2-fold IC50 (5 µM where none reported); for inhibition of CYP3A catalytic activities at higher concentration: 10 µM
Protocol: as §1, §2, §3

[3] = tested on: CYP3A; conditions: avian; for % of control (catalytic activity at 2-fold IC50) / Catalytic activity at 2-fold IC50: compound at estimated 2-fold IC50 (5 µM where none reported)
Protocol: as §1, §2, §3

[4] = tested on: CYP3A; assay: CYP3A catalytic activity (erythromycin N-demethylation) in pooled human liver microsomes; conditions: for % of control (catalytic activity at 2-fold IC50) / Catalytic activity at 2-fold IC50: compound at estimated 2-fold IC50 (5 µM where none reported); for activity at 30 min: human, pH 7.4, probe erythromycin, % of control (catalytic activity at IC50), compound at estimated IC50 (1 µM where none reported)
Protocol: as §3

Row | Compound | Percent control catalytic activity at estimated IC50 [1] [percent control] | Percent control catalytic activity at estimated 2-fold IC50 [1] [percent control] | % of control (catalytic activity at 2-fold IC50) ([1]; possum) | Catalytic activity at 2-fold IC50 ([1]; possum) [nmol/mg/min] | % of control (catalytic activity at IC50) ([1]; possum, compound at estimated IC50 (1 µM where none reported)) | Percent control catalytic activity at estimated IC50 [2] [percent control] | Percent control catalytic activity at estimated 2-fold IC50 [2] [percent control] | % of control (catalytic activity at 2-fold IC50) ([2]; mouse) | Catalytic activity at 2-fold IC50 ([2]; mouse) [nmol/mg/min] | % of control (catalytic activity at IC50) ([2]; mouse, compound at estimated IC50 (1 µM where none reported)) | % of control (catalytic activity at 2-fold IC50) [3] | Catalytic activity at 2-fold IC50 [3] [nmol/mg/min] | % of control (catalytic activity at IC50) ([3]; compound at estimated IC50 (1 µM where none reported)) | inhibition of CYP3A catalytic activities at higher concentration ([1]; possum) | reduced catalytic activity of possum CYP3A, % of the control ([1]; possum) | % of control (catalytic activity at 2-fold IC50) [4] | Catalytic activity at 2-fold IC50 [4] [nmol/mg/min] | inhibition of CYP3A catalytic activities at higher concentration ([2]; mouse) | activity at 30 min [4] [%]
1 | C/C1=C/CC[C@H](C)C(=O)C[C@@H](C(C)C)C(=O)C1 [Curdione] | 92 | 103 | 99 % of control | 0.37 ± 0.03 | 91 % of control | 143 | 134 | 94 % of control | 0.38 ± 0.05 | 114 % of control | 99 % of control | 0.41 ± 0.04 | 97 % of control |  |  |  |  |  | 
2 | C=C[C@@H]1C2=CCOC(=O)C2=CO[C@H]1O[C@@H]1O[C@H](CO)[C@@H](O)[C@H](O)[C@H]1O [Gentiopicroside] | 98 | 83 | 82 % of control | 0.29 ± 0.02 |  | 92 | 85 | 97 % of control | 0.56 ± 0.12 |  | 114 % of control | 0.32 ± 0.03 |  | did not show any significant inhibition | ~ 35 % of the control | 122 % of control | 0.54 | did not show any significant inhibition | 
3 | CCc1oc2ccccc2c1C(=O)c1cc(Br)c(O)c(Br)c1 [Benzbromarone] | 83 | 78 | 80 % of control | 0.26 ± 0.02 |  | 97 | 96 | 97 % of control | 0.57 ± 0.08 |  | 104 % of control | 0.34 ± 0.01 |  | did not show any significant inhibition | ~ 35 % of the control | 113 % of control | 0.37 | did not show any significant inhibition | 
4 | C[C@]12CC[C@H](O)CC1=CC[C@@H]1[C@@H]2CC[C@]2(C)C(n3cnc4ccccc43)=CC[C@@H]12 [Galeterone] | 76 | 80 | 83 % of control | 0.32 ± 0.02 |  | 88 | 86 | 105 % of control | 0.63 ± 0.10 |  |  | 0.36 ± 0.04 |  | did not show any significant inhibition | ~ 35 % of the control | 114 % of control | 0.61 | did not show any significant inhibition | 99
5 | O=C1c2ccccc2C(=O)c2c1ccc(O)c2O [Alizarin] | 70 | 77 | 84 % of control | 0.27 ± 0.01 |  | 91 | 89 | 96 % of control | 0.57 ± 0.06 |  | 94 % of control | 0.30 ± 0.04 |  | did not show any significant inhibition | ~ 35 % of the control | 98 % of control | 0.57 | did not show any significant inhibition | 
6 | COc1ccc(/C=C/c2cc(O)cc(O)c2)cc1O [Rhapontigenin] | 103 | 103 | 124 % of control | 0.40 ± 0.03 |  | 116 | 157 | 144 % of control | 0.52 ± 0.05 |  | 101 % of control | 0.30 ± 0.03 |  |  |  | 110 % of control | 0.53 |  | 106
